# Literature values, collected in patent US10159658B2, “Compositions comprising statins, biguanides and further agents for reducing cardiometabolic risk” (ELCELYX THERAPEUTICS, INC., priority 2011, dated 2018).
# System: atherosclerotic plaque volume
# Conditions: diabetics; PERISCOPE, Nissen et al. JAMA 2008
smiles,measurement,value
CCC1=C(C)CN(C(=O)NCCc2ccc(S(=O)(=O)NC(=O)N[C@H]3CC[C@H](C)CC3)cc2)C1=O [Glimepiride],change of atherosclerotic plaque volume over time,0.73%
